# Results reported in patent US8440794B2, “Peptide sequences, their branched form and use thereof for antimicrobial applications” (Universita' Degli Studi di Siena, priority 2008, dated 2013).
# Where a SMILES comes first, the peptide text is derived from it. Bridges are numbered along the chain shown (N, C = ends). Roman numbers before positions name the chains, in order. [ ]: non-standard residue; d: D form. βAla = NCCC(=O)O
# Columns and labels:
# [1] = system: K pneumoniae 7086042; type: cell-based, Klebsiella pneumoniae; conditions: 7086042, 24 h
# Experimental: (§1) M33, […], M35 and M36 MICs were determined against strains of several bacterial species, including Gram-negative pathogens and also Staphylococcus aureus (Table 1). MICs in the micromolar range were observed against several Gram-negatives including Pseudomonas aeruginosa, Acinetobacter baumannii and most Enterobacteriaceae, with the exception of Proteus mirabilis, Serratia marcescens and Burkholderia cepacia. Activity of peptides was retained against MDR strains with various resistance mechanisms (such as extended-spectrum beta-lactamases and carbapenemases), including MDR P. aeruginosa strains from CF patients. Antimicrobial profile of M33, […] and potency were overall similar to those of polymyxin B, although M33, M34, M35 and M36 also appeared to have some activity against S. aureus (Table 1).
# [2] = system: K pneumoniae C8-27; type: cell-based, Klebsiella pneumoniae; conditions: C8-27, 24 h
# Experimental: as §1
# [3] = system: K pneumoniae FIPP-1; type: cell-based, Klebsiella pneumoniae; conditions: FIPP-1, 24 h
# Experimental: as §1
# [4] = system: S. aureus 3851; type: cell-based, Staphylococcus aureus; conditions: 3851, 24 h
# Experimental: as §1
# [5] = type: in vivo; conditions: animals treated ip with 100 mg/Kg (not shown)
# [6] = system: P. aeruginosa SC-CNm03-07; type: cell-based, Pseudomonas aeruginosa; conditions: SC-CNm03-07, 24 h
# Experimental: as §1
# [7] = system: P. aeruginosa SC-VMr04-05; type: cell-based, Pseudomonas aeruginosa; conditions: SC-VMr04-05, 24 h
# Experimental: as §1
# [8] = system: P. aeruginosa EF-OBG6-1; type: cell-based, Pseudomonas aeruginosa; conditions: EF-OBG6-1, 24 h
# Experimental: as §1
# [9] = system: P. aeruginosa ATCC 27853; assay: In vivo antibacterial activity, mice infected ip with lethal amount of P. aeruginosa ATCC 27853; design: species or system Balb-c mice; conditions: for Animals protected from death: P. aeruginosa ATCC 27853 1×10^7 CFU ip
# Experimental: (§2) FIG. 4. In vivo antibacterial activity of tetra-branched M33 peptide. A, Balb-c mice (20 g) were intra-peritoneally injected with a lethal amount of E. coli TG1 cells (1.5×10^9 CFU). Continuous line (Ctr) indicates mice only injected ip with bacteria and no M33. Broken line indicates mice injected ip with bacteria and a single injection of M33 peptide 10 mg/Kg 30 minutes later. B, Balb-c mice (20 g) were intra-peritoneally injected with a lethal amount of P. aeruginosa cells (ATCC 27853 1×10^7 CFU). Continuous line (Ctr) indicates mice which only received bacteria; other groups received bacteria and a single dose of M33 30 minutes later (see figure for doses of M33). C, Balb-c mice (20 g) were intra-peritoneally injected with a lethal amount of P. aeruginosa cells (multi drug resistant VR 147 clinical isolate, 1.5×10^7 CFU). Continuous line (Ctr) indicates mice which only received bacteria; broken line indicates mice which received bacteria and a single dose of M33 25 mg/Kg. D, Balb-c mice (20 g) were intra-peritoneally injected with a lethal amount of P. aeruginosa cells (ATCC 27853 1×10^7 CFU). Continuous line (Ctr) indicates mice which only received bacteria; long broken line, mice receiving bacteria and two injections of M33 (5 mg/Kg×2), 30 minutes and 12 hours after bacteria; short broken line, mice receiving bacteria and three injections of M33 (5 mg/Kg×3), 30 minutes, 12 and 24 hours after bacteria. P<0.05.
# Tetra-branched M33 peptide was analysed for its antibacterial activity in mice infected with lethal amounts of bacteria. Two different bacterial species were used, Escherichia coli and Pseudomonas aeruginosa. […] Balb-c mice were infected with the LD100 of bacteria and treated 30 minutes later with the peptide by ip administration.
# [10] = system: P. aeruginosa and K. pneumoniae; type: cell-based; conditions: 24 h
# Experimental: as §1
# (§3) Then it was examined for inhibiting LPS-induced TNF-α, secretion by Raw 264.7 macrophages.
# [11] = system: P. aeruginosa ATCC 27853; assay: Bacterial load of P. aeruginosa in a mouse sepsis model; type: in vivo; conditions: P. aeruginosa 1 × 10^7 CFU/mouse ip, M33 25 mg/Kg
# Experimental: After 40 hours, all sampled body sites were apparently clear of bacteria (Table 2).
# [12] = system: A. baumannii MR157; type: cell-based, Acinetobacter baumannii; conditions: MR157, 24 h
# Experimental: as §1
# [13] = system: A. baumannii RUH 875; type: cell-based, Acinetobacter baumannii; conditions: RUH 875, 24 h
# Experimental: as §1
# [14] = system: E. coli W03BG0025; type: cell-based, Escherichia coli; conditions: W03BG0025, 24 h
# Experimental: as §1
# [15] = system: P. aeruginosa VR-143/97; assay: In vivo antibacterial activity, mice infected ip with lethal amount of MDR P. aeruginosa VR-143/97; design: species or system Balb-c mice; conditions: MDR P. aeruginosa VR-143/97 1.5×10^7 CFU ip; single dose 25 mg/Kg
# Experimental: as §2, with “Continuous line (Ctr) indicates mice which only received bacteria; long broken line, mice receiving bacteria and two injections of M33 (5 mg/Kg×2), 30 minutes and 12 hours after bacteria; short broken line, mice receiving bacteria and three injections of M33 (5 mg/Kg×3), 30 minutes, 12 and 24 hours after bacteria. P<0.05.” left out
# Tetra-branched M33 peptide was analysed for its antibacterial activity in mice infected with lethal amounts of bacteria. […]
# [16] = system: LPS from P. aeruginosa serotype 10 ATCC27316; TNF-α secretion by Raw 264.7 macrophages; assay: Inhibition of LPS-induced TNF-α secretion by Raw 264.7 macrophages, LPS from P. aeruginosa; type: cell-based
# Experimental: FIG. 3. Inhibition of TNF-α release by neutralization of LPS. A, Raw 264.7 cells were incubated with LPS from P. aeruginosa 20 ng/ml and M33. Triangles indicate incubation with LPS and different concentrations of M33. Squares indicate incubation with M33 only. B, Raw 264.7 cells were incubated with LPS from K. pneumoniae 5 ng/ml and M33. Triangles indicate incubation of macrophages with LPS and different concentrations of M33. Squares indicate incubation of macrophages with M33 only. SD derived by means of three different experiments. 100% indicates the maximum amount of TNF-α produced by macrophages when incubated with LPS without M33. The other percentages indicate the amount of TNF-α produced by macrophages when incubated with LPS and M33, with respect to 100%. Basal levels of TNF-α were negligible. MIC of M33 is indicated by the arrow.
# as §3
# [17] = system: LPS; assay: Limulus amebocyte lysate test (E-toxate), LPS neutralization; conditions: not shown
# [18] = sacrificed 18 h after infection
# [19] = sacrificed 40 h after infection
compound,measurement,setting,value
"CC[C@H](C)[C@H](NC(=O)[C@H](CCCCN)NC(=O)[C@@H](N)CCCCN)C(=O)N[C@@H](CCCNC(=N)N)C(=O)N[C@H](C(=O)N[C@@H](CCCNC(=N)N)C(=O)N[C@@H](CC(C)C)C(=O)N[C@@H](CO)C(=O)N[C@@H](C)C(=O)NCCCC[C@H](NC(=O)[C@H](C)NC(=O)[C@H](CO)NC(=O)[C@H](CC(C)C)NC(=O)[C@H](CCCNC(=N)N)NC(=O)[C@@H](NC(=O)[C@H](CCCNC(=N)N)NC(=O)[C@@H](NC(=O)[C@H](CCCCN)NC(=O)[C@@H](N)CCCCN)[C@@H](C)CC)C(C)C)C(=O)NCCCC[C@H](NC(=O)[C@H](CCCCNC(=O)[C@H](C)NC(=O)[C@H](CO)NC(=O)[C@H](CC(C)C)NC(=O)[C@H](CCCNC(=N)N)NC(=O)[C@@H](NC(=O)[C@H](CCCNC(=N)N)NC(=O)[C@@H](NC(=O)[C@H](CCCCN)NC(=O)[C@@H](N)CCCCN)[C@@H](C)CC)C(C)C)NC(=O)[C@H](C)NC(=O)[C@H](CO)NC(=O)[C@H](CC(C)C)NC(=O)[C@H](CCCNC(=N)N)NC(=O)[C@@H](NC(=O)[C@H](CCCNC(=N)N)NC(=O)[C@@H](NC(=O)[C@H](CCCCN)NC(=O)[C@@H](N)CCCCN)[C@@H](C)CC)C(C)C)C(=O)NCCC(=O)O)C(C)C [M33, KKIRVRLSA] (I: H-KKIRVRLSAKK[βAla]-OH / II: H-KKIRVRLSAK / III: H-KKIRVRLSA / IV: H-KKIRVRLSA; amide I:10-IV:C, I:11-II:C, II:10-III:C; N-terminus assumed)",MIC,[1],3 µM
same,MIC,[2],1.5 µM
same,MIC,[3],3 µM
same,MIC,[4],6 µM
same,Apparent toxicity signs,[5],did not produce apparent toxicity signs
same,MIC,[6],0.3 µM
same,MIC,[7],3 µM
same,MIC,[8],0.7 µM
same,Animals protected from death,[9]; single dose 6.5 mg/Kg ip 30 minutes later,did not protect them from death
same,Animals protected from death,[9]; single dose 12.5 mg/Kg ip 30 minutes later,25%
same,Animals protected from death,[9]; single dose 25 mg/Kg ip 30 minutes later,75%
same,Survival beyond seven days after infection,"[9]; P. aeruginosa ATCC 27853, three doses of 5 mg/Kg (30 min, 12 h and 24 h after infection)",100%
same,Survival after multiple doses,"[9]; P. aeruginosa ATCC 27853, two doses of 5 mg/Kg (30 min and 12 h after infection)",death was delayed
same,MIC,[10],1.5 to 3 µM
same,Bacterial count (mean ± SD) in Blood,[11]; [18],<1 × 10^2 CFU/ml
same,Bacterial count (mean ± SD) in Liver,[11]; [18],3 × 10^5 ± 6.7 × 10^5 CFU/organ
same,Bacterial count (mean ± SD) in Spleen,[11]; [18],2.4 × 10^4 ± 5.3 × 10^4 CFU/organ
same,Bacterial count (mean ± SD) in Blood,[11]; [19],<1 × 10^2 CFU/ml
same,Bacterial count (mean ± SD) in Liver,[11]; [19],<1 × 10^2 CFU/organ
same,Bacterial count (mean ± SD) in Peritoneum,[11]; [19],<1 × 10^2 CFU/ml
same,Bacterial count (mean ± SD) in Spleen,[11]; [19],<1 × 10^2 CFU/organ
same,MIC,[12],3 µM
same,MIC,[13],3 µM
same,MIC,[14],0.7 µM
same,Animals protected,[15],100%
same,EC50,"[16]; Raw 264.7 macrophages, LPS from P. aeruginosa serotype 10 ATCC27316, 20 ng/ml, read-out: EC50, block of TNF-α secretion",40 nM
same,Decrease of TNF-α production,"[16]; at a concentration corresponding to MIC (1.5-3 μM), LPS from P. aeruginosa",more than 90%
same,Neutralization of sample gelification due to LPS,[17],ability to neutralize sample gelification due to LPS
